Data set [1] has as its target T1, SSAO (Homo sapiens, UniProt Q16853).
T1 construct: purchased Sigma
T1 sequence (Q16853 1-763): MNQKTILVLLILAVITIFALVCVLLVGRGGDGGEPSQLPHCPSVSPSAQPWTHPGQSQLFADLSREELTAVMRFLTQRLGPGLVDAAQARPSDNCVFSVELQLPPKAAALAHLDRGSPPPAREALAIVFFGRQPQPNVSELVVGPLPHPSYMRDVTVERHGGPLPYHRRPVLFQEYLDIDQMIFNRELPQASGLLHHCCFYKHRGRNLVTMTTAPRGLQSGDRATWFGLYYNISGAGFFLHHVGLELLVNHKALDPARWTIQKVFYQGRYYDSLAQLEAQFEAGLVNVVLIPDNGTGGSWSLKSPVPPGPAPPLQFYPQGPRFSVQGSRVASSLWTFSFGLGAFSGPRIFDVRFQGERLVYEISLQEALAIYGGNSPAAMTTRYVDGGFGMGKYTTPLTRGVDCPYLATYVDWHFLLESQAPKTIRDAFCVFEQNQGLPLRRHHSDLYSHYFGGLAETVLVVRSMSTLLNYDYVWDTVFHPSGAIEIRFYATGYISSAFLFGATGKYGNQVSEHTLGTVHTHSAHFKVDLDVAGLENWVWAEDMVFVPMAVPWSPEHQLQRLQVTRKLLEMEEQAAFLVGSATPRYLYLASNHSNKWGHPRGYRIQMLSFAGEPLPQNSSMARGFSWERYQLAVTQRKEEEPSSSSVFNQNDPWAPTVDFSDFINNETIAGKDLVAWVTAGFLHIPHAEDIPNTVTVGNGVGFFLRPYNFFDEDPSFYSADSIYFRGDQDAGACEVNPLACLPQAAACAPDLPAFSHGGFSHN
It is filed as biochemical. To be noted: Table 7.
Method: (§1) All amine oxidase assays were performed with concentrations as above. MAO-A and MAO-B enzymes were purchased from Sigma. The catalytic activity of MAO-A and MAO-B was determined using the Promega MAO-Glo assay kit (substrate included), with clorgyline and deprenyl as reference inhibitor controls, respectively. DAO was purchased from Sigma, and the catalytic activity was determined using the Promega ROS-Glo assay kit, with aminoguanidine as the reference inhibitor control. SSAO was purchased from Sigma. SSAO catalytic activity was determined using the Promega MAO-Glo assay kit, with mofegiline as the reference inhibitor control.

Data set [2] deals with T2, MAO-A (Homo sapiens, UniProt P21397).
T2 construct: purchased Sigma
T2 sequence (P21397 1-527): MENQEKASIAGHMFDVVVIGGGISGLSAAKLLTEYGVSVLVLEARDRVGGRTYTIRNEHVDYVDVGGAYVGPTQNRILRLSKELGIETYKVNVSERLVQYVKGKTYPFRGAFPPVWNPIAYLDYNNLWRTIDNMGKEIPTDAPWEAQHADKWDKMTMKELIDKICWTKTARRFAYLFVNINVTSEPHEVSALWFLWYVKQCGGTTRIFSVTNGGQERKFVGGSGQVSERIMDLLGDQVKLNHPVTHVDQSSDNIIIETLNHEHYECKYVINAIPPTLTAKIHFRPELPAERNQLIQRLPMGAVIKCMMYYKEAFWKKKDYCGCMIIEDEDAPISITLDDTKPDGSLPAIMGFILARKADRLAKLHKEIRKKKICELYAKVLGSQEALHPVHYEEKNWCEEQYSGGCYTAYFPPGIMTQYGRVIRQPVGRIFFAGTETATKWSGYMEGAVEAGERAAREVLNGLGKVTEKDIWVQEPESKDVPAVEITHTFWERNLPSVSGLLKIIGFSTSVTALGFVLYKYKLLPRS
It is filed as biochemical. To be noted: Table 7.
Method: as §1

The target of data set [3] is T3, MAO-B (Homo sapiens, UniProt P27338).
T3 construct: purchased Sigma
T3 sequence (P27338 1-520): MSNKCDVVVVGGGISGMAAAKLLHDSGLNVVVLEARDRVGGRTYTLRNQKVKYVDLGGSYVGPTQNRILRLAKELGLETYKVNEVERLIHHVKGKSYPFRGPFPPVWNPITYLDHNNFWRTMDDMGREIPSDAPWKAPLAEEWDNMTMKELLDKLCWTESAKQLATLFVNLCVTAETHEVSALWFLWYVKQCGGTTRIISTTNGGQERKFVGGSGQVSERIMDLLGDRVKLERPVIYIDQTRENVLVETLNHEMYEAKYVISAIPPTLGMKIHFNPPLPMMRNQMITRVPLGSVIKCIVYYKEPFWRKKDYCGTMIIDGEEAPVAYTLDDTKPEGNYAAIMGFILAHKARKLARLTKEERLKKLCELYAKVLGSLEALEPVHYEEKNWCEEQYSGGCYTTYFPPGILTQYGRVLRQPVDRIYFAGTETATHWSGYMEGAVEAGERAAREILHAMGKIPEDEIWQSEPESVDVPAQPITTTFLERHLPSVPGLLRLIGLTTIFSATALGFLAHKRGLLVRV
It is filed as biochemical. To be noted: Table 7.
Method: as §1

Data set [4] can be described thus: In vivo PK, mouse. To be noted: single po dose 50 mg/kg.
From the text: Female Balb/C or CD1 nude mice (Charles River Laboratories) at 6 weeks of age were used for the mouse PK analyses. […] Three mice were used per time-point per route; average values are reported. They were placed under halothane or isoflurane anesthesia, and blood for plasma preparation was taken by terminal cardiac puncture into heparinized syringes.
In data set [5] the target is T4, DAO (Sus scrofa, UniProt Q9TRC7).
T4 construct: purchased Sigma
T4 sequence (Q9TRC7 25-755): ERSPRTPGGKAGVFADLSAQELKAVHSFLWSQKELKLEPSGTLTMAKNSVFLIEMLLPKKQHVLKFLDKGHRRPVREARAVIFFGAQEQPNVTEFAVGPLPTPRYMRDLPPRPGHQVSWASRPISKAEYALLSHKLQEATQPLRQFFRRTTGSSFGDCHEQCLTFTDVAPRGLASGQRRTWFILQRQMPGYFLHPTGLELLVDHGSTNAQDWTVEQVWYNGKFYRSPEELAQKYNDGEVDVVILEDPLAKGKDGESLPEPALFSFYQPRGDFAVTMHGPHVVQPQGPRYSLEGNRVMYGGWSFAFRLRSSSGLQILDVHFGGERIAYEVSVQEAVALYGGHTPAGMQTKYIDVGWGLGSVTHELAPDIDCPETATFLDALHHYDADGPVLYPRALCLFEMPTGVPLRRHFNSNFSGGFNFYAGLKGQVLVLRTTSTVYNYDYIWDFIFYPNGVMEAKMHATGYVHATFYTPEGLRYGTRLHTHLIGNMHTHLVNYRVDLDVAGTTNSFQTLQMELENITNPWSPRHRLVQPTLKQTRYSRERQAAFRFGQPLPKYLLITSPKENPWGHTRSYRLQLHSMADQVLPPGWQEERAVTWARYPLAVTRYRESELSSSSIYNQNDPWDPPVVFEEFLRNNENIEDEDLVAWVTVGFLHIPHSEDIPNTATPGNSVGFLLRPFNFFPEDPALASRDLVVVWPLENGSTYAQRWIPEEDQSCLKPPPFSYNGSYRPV
It is filed as biochemical. To be noted: Table 7.
Method: as §1

Data set [6] addresses hERG human potassium ion channel (Homo sapiens, UniProt Q12809).
Method: hERG inhibition was determined using the “hERG human potassium ion channel cell based antagonist Qpatch assay” by Eurofins Ltd. Cell permeability was determined using the “Caco-2 permeability assay” by Cyprotex Ltd.
Data set [7] can be described thus: MLM stability assay. Format: in vitro ADME. To be noted: mouse liver microsomes; percentage of compound remaining after 30 min; 10 μM.
Method: Mouse liver microsomes (CD1 female; M1500) and rat liver microsomes (Sprague Dawley female; R1500) were purchased from Tebu-bio, and the assay was performed by methods previously described.[21] Inhibitors at 10 μM concentration incubated with the microsomes were assessed at 0, 15, and 30 min. Control samples containing no microsomes and no cofactors were also assessed at 0 and 30 min. Samples were extracted by protein precipitation, and centrifugation for 20 min in a refrigerated centrifuge (4 °C) at 3700 rpm. The supernatant was analyzed by LC–MS/MS for % metabolized over time.

pIC50: −log10 of the molar value. Several values for one entry are separate records, joined by “and”; a condition that tells them apart may be missing. Equal values may be shown once. Where a name gives a salt, the structure may show the parent alone. A value given as a limit tells only on which side of the number the result lay.

Chain of hERG human potassium ion channel (Q12809 whole entry): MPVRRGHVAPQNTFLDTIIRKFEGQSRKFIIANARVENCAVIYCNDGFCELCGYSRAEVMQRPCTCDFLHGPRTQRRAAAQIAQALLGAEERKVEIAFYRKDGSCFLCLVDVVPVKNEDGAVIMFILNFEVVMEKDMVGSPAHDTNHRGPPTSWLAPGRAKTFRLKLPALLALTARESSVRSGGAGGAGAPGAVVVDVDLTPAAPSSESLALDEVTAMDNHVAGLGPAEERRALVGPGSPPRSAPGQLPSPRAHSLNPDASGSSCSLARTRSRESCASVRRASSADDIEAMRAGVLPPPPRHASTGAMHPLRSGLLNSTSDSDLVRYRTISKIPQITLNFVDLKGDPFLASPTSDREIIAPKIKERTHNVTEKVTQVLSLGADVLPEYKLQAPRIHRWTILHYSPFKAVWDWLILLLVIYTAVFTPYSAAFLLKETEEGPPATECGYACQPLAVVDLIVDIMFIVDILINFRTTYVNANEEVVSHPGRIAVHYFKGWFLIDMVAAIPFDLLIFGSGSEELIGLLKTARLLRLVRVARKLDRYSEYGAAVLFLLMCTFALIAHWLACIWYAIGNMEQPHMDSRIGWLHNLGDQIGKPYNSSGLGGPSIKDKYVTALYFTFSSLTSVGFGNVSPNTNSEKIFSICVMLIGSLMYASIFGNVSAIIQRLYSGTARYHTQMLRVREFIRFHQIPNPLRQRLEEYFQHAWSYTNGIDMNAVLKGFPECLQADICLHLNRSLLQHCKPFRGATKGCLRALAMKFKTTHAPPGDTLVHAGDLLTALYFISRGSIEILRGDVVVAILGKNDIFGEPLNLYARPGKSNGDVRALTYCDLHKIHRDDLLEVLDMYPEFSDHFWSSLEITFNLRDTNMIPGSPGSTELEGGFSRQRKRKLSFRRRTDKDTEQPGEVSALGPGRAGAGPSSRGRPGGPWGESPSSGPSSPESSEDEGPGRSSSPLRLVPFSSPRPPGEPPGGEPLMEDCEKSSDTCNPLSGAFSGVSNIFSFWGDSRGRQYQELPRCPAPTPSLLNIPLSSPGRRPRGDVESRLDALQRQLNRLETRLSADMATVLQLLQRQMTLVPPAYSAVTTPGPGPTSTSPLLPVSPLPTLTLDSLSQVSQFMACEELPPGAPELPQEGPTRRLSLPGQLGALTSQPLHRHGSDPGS

What is called pIC50 is −log10 of the IC50, conventionally taken in molar units. Read a low pIC50 as a large IC50. As a reminder, the Cmax is the peak of the concentration-time curve. Turning to `Cn1cc(-c2cc(F)cc(S(=O)(=O)c3cnc(CN)s3)c2)cn1` [Compound 21e, (5-((3-Fluoro-5-(1-methyl-1H-pyrazol-4-yl)phenyl)sulfonyl)thiazol-2-yl)methanamine Hydrochloride], the pIC50 in data set [1] was 4.44 and 4.39; in data set [2], 4.21 and 4.18; in data set [3], less than 4.00; in data set [5], 4.67 and 4.65; in data set [6], 4.18. The “AUC(PO)” value in data set [4] (mouse plasma) turned out to be 4.48 µM·h. This compound showed a Cmax in data set [4] (mouse plasma) of 9.75 µM. Moreover, the “t1/2(PO)” value in data set [4] (mouse) amounted to 2.0 h. Further, in data set [7], the “MLM stability (%)” value is given as 90%.

The values above are taken from paper PMC7073924, “2-Aminomethylene-5-sulfonylthiazole Inhibitors of Lysyl Oxidase (LOX) and LOXL2 Show Significant Efficacy in Delaying Tumor Growth” (Journal of Medicinal Chemistry, 2019).
